US12338256B2, “Aza-tetracyclic oxazepine compounds and uses thereof” (Genentech, Inc., priority 2022, dated 2025)

Tests used:
[1] = tested on: HPAC (homozygous mutant KRAS G12D human pancreatic cell line); assay: KRAS 3D-Cell Proliferation Assay, HPAC (Example 503); type: cell-based; settings: Homo sapiens, HPAC, 168 h, HPAC 3D culture, 7 days, CellTiter-Glo 3D; read-out: Prolif HPAC 3D ATP IC50
In short: (§1)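 Cells grown in 3D in ultra-low attachment plates (RPMI-1640 with 10% FBS and 2 mM L-glutamine) received compound dilution series after overnight attachment, at 0.3% DMSO final, for 7 days at 37° C. ATP luminescence (CellTiter-Glo 3D) normalized to DMSO and 1 μM staurosporine; IC50 from 4-parameter Hill fit.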

[2] = tested on: H1975 (KRAS wild type human lung adenocarcinoma cell line); assay: KRAS 3D-Cell Proliferation Assay, H1975 (Example 503); type: cell-based; settings: Homo sapiens, NCI-H1975, 168 h, H1975 3D culture, 7 days, CellTiter-Glo 3D; read-out: Prolif H1975 3D ATP IC50
In short: as §1

Compound	IC50 [1]	IC50 [2]
C[C@@H]1Oc2nc(-c3c(C#N)c(N)c(F)c(F)c3C(F)(F)F)c(F)c3nc(OC[C@@]45CCCN4C[C@H](F)C5)nc(c23)N2C[C@H]3CC[C@H](N3)[C@@H]12 [Compound 107, 2-Amino-3,4-difluoro-6-((5S,5aS,6S,9R)-1-fluoro-12-(((2R,7aS)-2-fluorotetrahydro-1H-pyrrolizin-7a(5H)-yl)methoxy)-5-methyl-5a,6,7,8,9,10-hexahydro-5H-4-oxa-3,10a,11,13,14-pentaaza-6,9-methanonaphtho[1,8-ab]heptalen-2-yl)-5-(trifluoromethyl)benzonitrile]	43.5 nM	4870 nM
Cc1cc(N)c(F)c(-c2nc3c4c(nc(OC[C@@]56CCCN5C[C@H](F)C6)nc4c2F)N2C[C@H]4CC[C@H](N4)[C@H]2[C@H](C)O3)c1I [Compound 108, 2-Fluoro-3-((5S,5aS,6S,9R)-1-fluoro-12-(((2R,7aS)-2-fluorotetrahydro-1H-pyrrolizin-7a(5H)-yl)methoxy)-5-methyl-5a,6,7,8,9,10-hexahydro-5H-4-oxa-3,10a,11,13,14-pentaaza-6,9-methanonaphtho[1,8-ab]heptalen-2-yl)-4-iodo-5-methylaniline]	2.85 nM	772 nM
C#Cc1c(F)ccc2cc(N)cc(-c3nc4c5c(nc(OC[C@]67CCN6CC(F)(F)C7)nc5c3F)N3C[C@H]5CC[C@H](N5)[C@H]3[C@H](C)O4)c12 [Compound 110, 4-((5S,5aS,6S,9R)-12-(((R)-3,3-Difluoro-1-azabicyclo[3.2.0]heptan-5-yl)methoxy)-1-fluoro-5-methyl-5a,6,7,8,9,10-hexahydro-5H-4-oxa-3,10a,11,13,14-pentaaza-6,9-methanonaphtho[1,8-ab]heptalen-2-yl)-5-ethynyl-6-fluoronaphthalen-2-amine]	2.58 nM	587 nM
Cc1c(F)c(N)cc(-c2nc3c4c(nc(OC[C@@H]5CC[C@H]6COCCN65)nc4c2F)N2C[C@H]4CC[C@H](N4)[C@H]2[C@H](C)O3)c1Cl [Compound 111, 4-Chloro-2-fluoro-5-((5S,5aS,6S,9R)-1-fluoro-12-(((6S,8aS)-hexahydro-1H-pyrrolo[2,1-c][1,4]oxazin-6-yl)methoxy)-5-methyl-5a,6,7,8,9,10-hexahydro-5H-4-oxa-3,10a,11,13,14-pentaaza-6,9-methanonaphtho[1,8-ab]heptalen-2-yl)-3-methylaniline]	14.1 nM	1840 nM
Cc1c(F)c(N)cc(-c2nc3c4c(nc(OC[C@@H]5CC[C@H]6COCCN65)nc4c2F)N2C[C@H]4CC[C@H](N4)[C@H]2[C@H](C)O3)c1CC(F)(F)F [Compound 113, 2-fluoro-5-((5S,5aS,6S,9R)-1-fluoro-12-(((6S,8aS)-hexahydro-1H-pyrrolo[2,1-c][1,4]oxazin-6-yl)methoxy)-5-methyl-5a,6,7,8,9,10-hexahydro-5H-4-oxa-3,10a,11,13,14-pentaaza-6,9-methanonaphtho[1,8-ab]heptalen-2-yl)-3-methyl-4-(2,2,2-trifluoroethyl)aniline]	2.91 nM	1170 nM
C[C@@H]1Oc2nc(-c3cccc4ccc(N)nc34)c(F)c3nc(OC[C@@]45CCCN4C[C@H](F)C5)nc(c23)N2C[C@H]3CC[C@H](N3)[C@@H]12 [Compound 114, 8-((5S,5aS,6S,9R)-1-Fluoro-12-(((2R,7aS)-2-fluorotetrahydro-1H-pyrrolizin-7a(5H)-yl)methoxy)-5-methyl-5a,6,7,8,9,10-hexahydro-5H-4-oxa-3,10a,11,13,14-pentaaza-6,9-methanonaphtho[1,8-ab]heptalen-2-yl)quinolin-2-amine]	2000 nM	20000 nM
C[C@@H]1Oc2nc(-c3cc(N)cc(C(F)(F)F)c3C(F)(F)F)c(F)c3nc(OC[C@@]45CCCN4C[C@H](F)C5)nc(c23)N2C[C@H]3CC[C@H](N3)[C@@H]12 [Compound 115, 3-((5S,5aS,6S,9R)-1-fluoro-12-(((2R,7aS)-2-fluorotetrahydro-1H-pyrrolizin-7a(5H)-yl)methoxy)-5-methyl-5a,6,7,8,9,10-hexahydro-5H-4-oxa-3,10a,11,13,14-pentaaza-6,9-methanonaphtho[1,8-ab]heptalen-2-yl)-4,5-bis(trifluoromethyl)aniline]	15.7 nM	2710 nM
C[C@@H]1Oc2nc(-c3cccc4sc(N)nc34)c(F)c3nc(OC[C@@]45CCCN4C[C@H](F)C5)nc(c23)N2C[C@H]3CC[C@H](N3)[C@@H]12 [Compound 116, 4-((5S,5aS,6S,9R)-1-fluoro-12-(((2R,7aS)-2-fluorotetrahydro-1H-pyrrolizin-7a(5H)-yl)methoxy)-5-methyl-5a,6,7,8,9,10-hexahydro-5H-4-oxa-3,10a,11,13,14-pentaaza-6,9-methanonaphtho[1,8-ab]heptalen-2-yl)benzo[d]thiazol-2-amine]	513 nM	20000 nM
C[C@@H]1Oc2nc(-c3cc(N)ccc3C(C)(C)C)c(F)c3nc(OC[C@@]45CCCN4C[C@H](F)C5)nc(c23)N2C[C@H]3CC[C@H](N3)[C@@H]12 [Compound 117, 4-(tert-butyl)-3-((5S,5aS,6S,9R)-1-fluoro-12-(((2R,7aS)-2-fluorotetrahydro-1H-pyrrolizin-7a(5H)-yl)methoxy)-5-methyl-5a,6,7,8,9,10-hexahydro-5H-4-oxa-3,10a,11,13,14-pentaaza-6,9-methanonaphtho[1,8-ab]heptalen-2-yl)aniline]	148 nM	4740 nM
Cc1c(F)c(N)cc(-c2nc3c4c(nc(OC[C@@H]5CCC6C=C(F)CCN65)nc4c2F)N2C[C@H]4CC[C@H](N4)[C@H]2[C@H](C)O3)c1C(F)(F)F (stereo partly drawn) [Compound 120, 2-fluoro-5-((5S,5aS,6S,9R)-1-fluoro-12-(((3S)-7-fluoro-1,2,3,5,6,8a-hexahydroindolizin-3-yl)methoxy)-5-methyl-5a,6,7,8,9,10-hexahydro-5H-4-oxa-3,10a,11,13,14-pentaaza-6,9-methanonaphtho[1,8-ab]heptalen-2-yl)-3-methyl-4-(trifluoromethyl)aniline]	10.6 nM	1530 nM
Cc1c(F)c(N)cc(-c2nc3c4c(nc(OC[C@@]56CCC(C)N5C[C@H](F)C6)nc4c2F)N2C[C@H]4CC[C@H](N4)[C@H]2[C@H](C)O3)c1C(F)(F)F (stereo partly drawn) [Compound 122, 2-fluoro-5-((5S,5aS,6S,9R)-1-fluoro-12-(((2R,7aS)-2-fluoro-5-methyltetrahydro-1H-pyrrolizin-7a(5H)-yl)methoxy)-5-methyl-5a,6,7,8,9,10-hexahydro-5H-4-oxa-3,10a,11,13,14-pentaaza-6,9-methanonaphtho[1,8-ab]heptalen-2-yl)-3-methyl-4-(trifluoromethyl)aniline]	1.84 nM	487 nM
Cc1c(F)c(N)cc(-c2nc3c4c(nc(OCC5CN(CC(F)F)C5)nc4c2F)N2C[C@H]4CC[C@H](N4)[C@H]2[C@H](C)O3)c1C(F)(F)F [Compound 128, 5-((5S,5aS,6S,9R)-12-((1-(2,2-Difluoroethyl)azetidin-3-yl)methoxy)-1-fluoro-5-methyl-5a,6,7,8,9,10-hexahydro-5H-4-oxa-3,10a,11,13,14-pentaaza-6,9-methanonaphtho[1,8-ab]heptalen-2-yl)-2-fluoro-3-methyl-4-(trifluoromethyl)aniline]	51.5 nM	5060 nM
